Series [1] can be described thus: Dissolution of isolated product in water. In kind it is physicochemical. The settings on record: observation.
For series [2] the following is noted: product dissolved in water, observation.
Series [3] can be described thus: pH of aqueous solution. The settings on record: 2% solution in water. Format: physicochemical.
The subject of series [4] is Cladosporium herbarum ATCC MYA-4682. Briefly: MIC microdilution assay. In kind it is cell-based. As to conditions: C. herbarum ATCC MYA-4682; RPMI media; 25±2° C. 3 to 5 days; two values given. How it is done: (§1) Strain numbers starting with “ATCC” were acquired from the American Type Culture Collection (Manassas, VA), while strain numbers starting with “CDC” were acquired from the Centers for Disease Control and Prevention (Atlanta, GA). All strains were maintained as −80° C. frozen glycerol stocks. S. aureus and P. aeruginosa were grown overnight on Tryptic Soy Agar (TSA) plates at 35±2° C., ambient atmosphere, while S. pyogenes was grown overnight on TSA+5% defibrinated sheep blood at 35±2° C., 5% CO2. All fungal species (i.e. C. albicans, C. auris and C. herbarum) were grown on Sabouraud Dextrose Agar (SDA) plates. C. herbarum was grown at 25±2° C. for 5 to 7 days, while all other fungal strains were grown at 35±2° C. overnight.
Test articles Compound 2 (batch #2G13A0.368) and Compound 23 (batch #2G17A0.372) were received and stored at 4° C. The antibiotic Tobramycin and antifungal Amphotericin B were used as quality control (QC) compounds for the MIC assay. […]
All bacterial-strain MIC 96-well plates were incubated at 35±2° C. for 18 to 20 hours, while all Candida MIC 96-well plates were incubated at 35±2° C. for 24 to 48 hours. […] After incubation, the 96-well plates were examined visually and on a spectrophotometer at absorbance OD650. […]
In general terms: Dilution methods test growth across graded concentrations, often in twofold steps.

The subject of series [5] is Pseudomonas aeruginosa ATCC 27853. Briefly: MIC microdilution assay (Example 32). In kind it is cell-based. As to conditions: P. aeruginosa ATCC 27853 (quality control); CAMHB; 35±2° C. 18 to 20 hours; two values given. How it is done: (§2) Strain IDs starting with “ATCC” were acquired from the American Type Culture Collection (Manassas, VA), strain IDs starting with “Eurofins” were acquired from Eurofins (Herndon, VA), while strain IDs starting with “CDC” were acquired from the Centers for Disease Control and Prevention (Atlanta, GA). All strains were maintained as −80° C. frozen glycerol stocks. S. aureus and P. aeruginosa were grown overnight on Tryptic Soy Agar (TSA) plates at 35±2° C., ambient atmosphere, while S. pyogenes was grown overnight on TSA+5% defibrinated sheep blood at 35±2° C., 5% CO2. C. jejuni was grown for 48 hours on TSA+5% defibrinated sheep blood at 35±2° C., in a microaerophilic environment generated by CampyGen sachet. All fungal species (i.e. C. albicans and C. auris) were grown overnight on Sabouraud Dextrose Agar (SDA) plates at 35±2° C., ambient atmosphere.
(§3) Test article Compound 1 (batch #7G30A9.203) was stored at 4° C. The antibiotic Tobramycin and antifungal Amphotericin B were used as quality control (QC) compounds for the MIC assay. Stock solutions of 3.2 mg/mL Tobramycin (Sigma-Aldrich, cat #T1783-500MG) and 3.2 mg/mL Amphotericin B (CP Lab Chemicals, cat #TOK-A007-1G) were prepared in sterile ultrapure water.
(§4) For bacteria strains, a few colonies of each strain were collected with a sterile swab and used to make a McFarland 0.5 standard solution (approximately 1×10^8 CFU/mL) in sterile PBS. The McFarland was then diluted 1:180 in Cation Adjusted Muller-Hinton Broth (CAMHB) for S. aureus and P. aeruginosa. S. pyogenes McFarland was diluted 1:180 in CAMHB+5% defibrinated sheep blood, while C. jejuni McFarland was diluted 1:180 in CAMHB+5% laked horse blood. 90 μL of this inoculum was combined with 10 μL of the 10× test article in a 96-well plate for a final concentration of 1×.
(§5) Except for C. jejuni, all bacterial-strain MIC 96-well plates were incubated at 35±2° C. for 18 to 20 hours, ambient atmosphere. C. jejuni was incubated at 35±2° C. for 48 hours, under microaerophilic condition. All Candida MIC 96-well plates were incubated at 35±2° C. for 24 to 48 hours, ambient atmosphere, until growth in control wells were observed. After incubation, the 96-well plates were examined visually and on a spectrophotometer at absorbance OD650. MIC is defined as the lowest concentration of a compound in which no visible growth is observed.

For series [6], the system named is Pseudomonas aeruginosa CDC 0248. Briefly: MIC microdilution assay (Example 32). In kind it is cell-based. As to conditions: P. aeruginosa CDC 0248; CAMHB; 35±2° C. 18 to 20 hours; two values given. The protocol: as §2, §3, §4, §5
Series [7] concerns Streptococcus pyogenes Eurofins 2065755. Briefly: MIC microdilution assay (Example 32). In kind it is cell-based. As to conditions: S. pyogenes Eurofins 2065755; CAMHB+5% defibrinated sheep blood; 35±2° C. 18 to 20 hours; two values given. How it is done:
as §2, §3, §4, §5

The test system of series [8] is Pseudomonas aeruginosa Eurofins 1674623. The series is described as follows: MIC microdilution assay (Example 32). In kind it is cell-based. The settings on record: P. aeruginosa Eurofins 1674623; CAMHB; 35±2° C. 18 to 20 hours; two values given. The protocol:
as §2, §3, §4, §5

The subject of series [9] is Acinetobacter baumannii Eurofins 1674627. The series is described as follows: MIC microdilution assay (Example 32). Format: cell-based. The settings on record: A. baumannii Eurofins 1674627; 35±2° C. 18 to 20 hours; two values given. How it is done: as §2, §3, §4, §5
For series [10], the system named is Campylobacter jejuni CDC 0413. The series is described as follows: MIC microdilution assay (Example 32). In kind it is cell-based. As to conditions: C. jejuni CDC 0413; CAMHB+5% laked horse blood; 35±2° C. 48 hours, microaerophilic; two values given. The protocol: as §2, §3, §4, §5
For series [11], the system named is S. pyogenes ATCC 51339. Briefly: MIC microdilution assay. As to conditions: S. pyogenes ATCC 51339; broth +5% defibrinated sheep blood; 35±2° C. 18 to 20 hours; two values given. Format: cell-based, Steptococcus pyogenes. How it is done:
as §1
(§6) Test articles Compound 2 (batch #2G13A0.368) and Compound 23 (batch #2G17A0.372) were received and stored at 4° C. The antibiotic Tobramycin and antifungal Amphotericin B were used as quality control (QC) compounds for the MIC assay. Stock solutions of 3.2 mg/mL Tobramycin (Sigma-Aldrich, cat #T1783-500MG) and 3.2 mg/mL Amphotericin B (CP Lab Chemicals, cat #TOK-A007-1G) were prepared in sterile ultrapure water.
(§7) For bacteria strains, a few colonies of each strain were collected with a sterile swab and used to make a McFarland 0.5 standard solution (approximately 1×10^8 CFU/mL) in sterile PBS. The McFarland was then diluted 1:180 in Cation Adjusted Muller-Hinton Broth (CAMHB) for S. aureus and P. aeruginosa, and in […]+5% defibrinated sheep blood for S. pyogenes. 90 μL of this inoculum was combined with 10 μL of the 10× test article in a 96-well plate for a final concentration of 1×.
(§8) All bacterial-strain MIC 96-well plates were incubated at 35±2° C. for 18 to 20 hours, while all Candida MIC 96-well plates were incubated at 35±2° C. for 24 to 48 hours. C. herbarum MIC 96-well plates were incubated at 25±2° C. for 3 to 5 days, until growth was visible in the growth control wells. After incubation, the 96-well plates were examined visually and on a spectrophotometer at absorbance OD650. […]

The test system of series [12] is Candida auris CDC 0381. Briefly: MIC microdilution assay. Format: cell-based. As to conditions: C. auris CDC 0381; RPMI media; 35±2° C. 24 to 48 hours; two values given. How it is done:
as §1, §6, §7
(§9) For the yeasts C. albicans and C. auris, a McFarland 0.5 standard solution in sterile PBS was similarly prepared (approximately 1×10^6 CFU/mL) and was subsequently diluted 1:180 in RPMI 1640 media buffered with 0.165 M MOPS at pH 7.0 (herein referred to as “RPMI media”). 90 μL of the Candida inoculum was combined with 10 μL of the 10× test article in a 96-well plate for a final concentration of 1×.
(§10) All bacterial-strain MIC 96-well plates were incubated at 35±2° C. for 18 to 20 hours, while all Candida MIC 96-well plates were incubated at 35±2° C. for 24 to 48 hours. C. herbarum MIC 96-well plates were incubated at 25±2° C. for 3 to 5 days, until growth was visible in the growth control wells. After incubation, the 96-well plates were examined visually and on a spectrophotometer at absorbance OD650. MIC is defined as the lowest concentration of a compound in which no visible growth is observed.

For series [13], the system named is Candida albicans ATCC 90028. Briefly: MIC microdilution assay. In kind it is cell-based. The settings on record: C. albicans ATCC 90028; RPMI media; 35±2° C. 24 to 48 hours; two values given. How it is done: as §1, §6, §7, §9, §10
The test system of series [14] is Candida auris CDC 0385. Briefly: MIC microdilution assay (Example 32). In kind it is cell-based. The settings on record: C. auris CDC 0385; RPMI media; 35±2° C. 24 to 48 hours; two values given. How it is done: as §2, §3, §4, §9, §5
Series [15] deals with Candida albicans ATCC 90028. The series is described as follows: MIC microdilution assay (Example 32). In kind it is cell-based. As to conditions: C. albicans ATCC 90028 (quality control); RPMI media; 35±2° C. 24 to 48 hours; two values given. The protocol:
as §2, §3, §4, §9, §5

The subject of series [16] is P. aeruginosa ATCC 27853. The series is described as follows: MIC microdilution assay. The settings on record: CAMHB, 35±2° C. 18 to 20 hours, two values given. In kind it is cell-based, Pseudomonas aeruginosa. How it is done: as §1, §6, §7, §8
Series [17] deals with Staphylococcus aureus ATCC 33591. The series is described as follows: MIC microdilution assay. As to conditions: S. aureus ATCC 33591; CAMHB; 35±2° C. 18 to 20 hours; two values given. Format: cell-based. How it is done: as §1, §6, §7, §8

≈ marks a conversion by molar mass, not a printed value. Some results are limits rather than exact numbers.

On to `CCCCCCCCCCCCCCCCC[N+](C)(C)CCC[Si]12OC[C@@H](O)[C@H](O1)[C@H](O)[C@H](C(=O)[O-])O2` [Example 16, Sodium (3R,4S,5S,6R)-1-(3-(heptadecyldimethylammonio)propyl)-4,6-dihydroxy-2,8,9-trioxa-1-silabicyclo[3.3.1]nonane-3-carboxylate; Chloride], for which the dissolution in water result in series [1] is listed as “poorly dissolved in water”. Further, in series [2], the stability in water entry is “quickly decomposed to for a biphasic mixture”.
Regarding `CCCCCCCCCCCCCCCCCC[N+](C)(C)CCC[Si](OCC(CO)(CO)NCC(O)CS(=O)(=O)[O-])(OCC(CO)(CO)NCC(O)CS(=O)(=O)O)OCC(CO)(CO)NCC(O)CS(=O)(=O)O` (stereo not shown) [Example 24, monosodium mono(8-(3-(dimethyl(octadecyl)ammonio)propyl)-2,14-dihydroxy-8-(3-hydroxy-2-((2-hydroxy-3-sulfopropyl)amino)-2-(hydroxymethyl)propoxy)-5,5,11,11-tetrakis(hydroxymethyl)-7,9-dioxa-4,12-diaza-8-silapentadecane-1,15-disulfonate); chloride], the dissolution in water result in series [1] was “readily dissolved in water”. In [3], this molecule showed a pH of solution of 7.65.
Consider `CCCCCCCCCCCCCCCCC[N+](C)(C)CCC[Si]1(O[C@H](C(=O)O)[C@H](O)[C@H](O)[C@@H](O)C(=O)O)O[C@@H]([C@H](O)C(=O)O)[C@H](O)[C@H](C(=O)O)O1` (stereo partly drawn) [Example 17, N-(3-((4R,5S,6R)-4-carboxy-6-((S)-carboxy(hydroxy)methyl)-2-((1S,2R,3S,4R)-1,4-dicarboxy-2,3,4-trihydroxybutoxy)-5-hydroxy-1,3,2-dioxasilinan-2-yl)propyl)-N,N-dimethylheptadecan-1-aminium chloride], for which the dissolution in water entry in series [1] is “poorly dissolved in water”. Also, in series [2], the stability in water result was “quickly decomposed to for a biphasic mixture”.
`C[C@@H]1[C@H](O)[C@@H](C)/C=C/C=C/C=C/C=C/C=C/C=C/C=C/[C@H](O[C@@H]2O[C@H](C)[C@@H](O)[C@H](N)[C@@H]2O)C[C@@H]2O[C@](O)(C[C@@H](O)C[C@@H](O)[C@H](O)CC[C@@H](O)C[C@@H](O)CC(=O)O[C@H]1C)C[C@H](O)[C@H]2C(=O)O` [Amphotericin B]: the MIC in series [4] is not above 0.03 µg/mL; in [5], more than 32 µg/mL; in [6], more than 32 µg/mL; in series [7], more than 32 µg/mL; in series [8], more than 32 µg/mL; in series [9] it was more than 32 µg/mL. Further, the minimum inhibitory concentration (MIC) in series [10] is more than 32 µg/mL; in series [11], more than 32 µg/mL; in series [12], 1 µg/mL (≈ 1.08 µM); in [13], 2 µg/mL (≈ 2.16 µM); in series [14], 4 µg/mL (≈ 4.33 µM); in [15], 1 µg/mL (≈ 1.08 µM). Moreover, the MIC in series [16] and in series [17] was more than 32 µg/mL throughout.
In the case of “Disodium, 7-(2-((carboxymethyl)(2-hydroxyethyl)amino)ethoxy)-7-(3-(heptadecyldimethylammonio)propyl)-3,11-bis(2-hydroxyethyl)-6,8-dioxa-3,11-diaza-7-silatridecanedioate; chloride [Example 13]”, the dissolution in water entry in series [1] is on record as “readily dissolved in water”. Moreover, the stability in water result in series [2] is on record as “soon formed a suspension”.

As usually defined, the MIC is the lowest concentration that inhibits growth of the organism. A lower MIC goes with a more susceptible organism.

For the origin of these results see patent US12264170B2, “Antimicrobial organosilanes” (TOPIKOS SCIENTIFIC, INC., priority 2019, dated 2025).
